Results published in patent US20130011347A1, “Personal Care Compositions With Improved Solubility of a Solid Cosmetic Active” (priority 2011, published 2013).

Assays:
[1] = Solvency of solvents for (S)-Equol (visual solubility after storage); details: solute (S)-Equol, 6% test solution, approximately 1:16 solute to solvent ratio, soluble = no visible crystals
Protocol: (§1) In the testing provided below, “soluble” (or “solubilize”), in relation to the solubility of a solid solute being tested, means that no visible crystals may be seen after a prescribed storage period at a storage condition. The storage period can vary. Suitable storage periods include about 24 hours, about 1 week, and about 30 days. Suitable storage conditions include ambient conditions or cold storage at 5° C. (approximately 1 atm). In certain embodiments, solubility may be determined after a 24 hour storage period at ambient conditions. In other embodiments, solubility may be determined after 20 days in cold storage. Other testing parameters may include storage for prolonged time periods (e.g., 30 day, 50 days, 60 days, 90 days) and at variable temperatures (e.g., 5° C., 50° C.).
The solvency of an isosorbide diester within the scope of the present invention was tested against two conventional, industry standard solvents. […] A test solution was of 6% Equol is prepared with heating to 70° C. Upon reaching 70° C., the examples may be mixed for about 10 minutes. Place mixtures in a covered vial and cool to the storage temperature. Solubility is evaluated for samples stored 24 hours at ambient conditions. Solubility is also evaluated for samples stored for 7 day at 5° C. followed by equilibration to ambient conditions.

[2] = Solvency of solvents for hexylresorcinol (visual solubility after storage); details: solute hexylresorcinol, 33.5% test solution, approximately 1:2 solute to solvent ratio, soluble = no visible crystals
Protocol: as §1
The solvency of an isosorbide diester within the scope of the present invention was tested against two conventional, industry standard solvents. […] A test solution of 33.5% hexylresorcinol is prepared with heating to 70° C. Upon reaching 70° C., the examples may be mixed for about 10 minutes. Place mixtures in a covered vial and cool to the storage temperature. Solubility is evaluated for samples stored 24 hours at ambient conditions. Solubility is also evaluated for samples stored for 7 day at 5° C. followed by equilibration to ambient conditions.

[3] = Solvency of solvents for tetrahydrocurcuminoids (THC) (visual solubility after storage); details: solute tetrahydrocurcuminoids (THC), 3% test solution, approximately 1:32 solute to solvent ratio, soluble = no visible crystals
[4] = then equilibration to ambient conditions

CCCCCCCCCCCC(=O)N(C)CC(=O)OC(C)C [Isopropyl lauroyl sarcosinate, isopropyl lauroyl sarcosinate]
Soluble: Solubility, 24 hour rest at Ambient Conditions ([1]; prepared at 70° C.) | Solubility, 7 day storage at 5° C. [1, 4] | Solubility, 24 hour rest at Ambient Conditions ([2]; prepared at 70° C.) | Solubility, 7 day storage at 5° C. [2, 4] | Solubility, 24 hour rest at Ambient Conditions ([3]; prepared at 70° C.) | Solubility, 7 day storage at 5° C. [3, 4]
